Laboratory results from patent US20110144029A1, “Model Systems and Materials for the Study and Treatment of Neurodegenerative Diseases” (BOARD OF REGENTS, THE UNIVERSITY OF TEXAS SYSTEM, priority 2009, published 2011).

Key:
[1] = test system: cerebellar granule neurons; experiment: Live/Dead (Red/Green) viability assay in cultured cerebellar granule neurons; type: cell-based, rat
Protocol: Neuronal cultures were switched to serum-free medium T-peptide, K-peptide, Core-peptide, V-peptide. VV-peptide, and T (L)-peptide. All peptides were used at 25 μM concentration. Phase contrast micrographs show appearance of the cultures after 24 h of peptide treatment. The Live/Dead viability assay was also performed. Nuclei of dead cells are stained red whereas cytoplasm of living cells are stained green. In the case of sick and dying cells, green staining is condensed;
(§1) Cerebellar granule neurons were switched to serum-free medium containing various concentrations of T-peptide, K-peptide, Core-peptide, V-peptide, VV-peptide, and T (L)-peptide. Cell viability was measured using two independent methods 24 h after peptide treatment and results are graphed. * indicates p<0.05 compared with control cells that were treated with HK: (4A) Results from Red/Green viability assay, (4B) Results from MTT assay;
Culturing and treatment of neurons: Cerebellar granule neurons were cultured from 7-8 day old rats as previously described. The neurons were plated in 24-well with poly-L-lysine coated glass coverslips at a density of ˜1 million cells/well in Basal Eagle's Medium with Earle's salts (BME) supplemented with 10% FCS, 25 mM KCl, 2 mM glutamine and […] gentamicin. To prevent mitosis of glial cells, cytosine arabinofuranoside ([…]) was added to culture 16-20 hrs after plating. Neuronal cultures were treated with peptides 6-7 days after plating. For treatment, the cultures were switched to serum-free medium containing 25 mM KCl (referred to as high potassium or HK medium). Although serum is required for proper maturation, after 5 days in culture, the neurons survive normally in the absence of serum provided depolarizing levels of KCl is added.
Cell viability quantification: Cell viability was quantified using the Live/Dead assays with a commercially available kit (Invitrogen). This is a two-color fluorescence assay utilizing two cell-permeable compounds, calcein acetoxymethyl (calcein AM) and ethidium homodimer-1 (EthD-1). Live cells have intracellular esterases that convert non-fluorescent calcein AM to the intensely green fluorescent calcein, which is retained within the cytoplasm of cells. Because dead cells have damaged membranes, EthD-1 enters and is fluorescent when bound to nucleic acids. EthD-1 stains the nuclei of damaged or dead cells. As recommended by the manufacturer, cells plated in wells with cover-slips were incubated in Live/Dead reagent (1 uM calcein AM and 4 uM EthD-1) for 30 min, and then mounted on slides. Cell viability was also analyzed using the MTT [3-(4,5-Dimethylthiazol-2-yl)-2,5-diphenyltetrazolium bromide] assay based on the evaluation of mitochondrial function. MTT assays were performed as previously described. Briefly, MTT (5 mg/ml in culture medium) was added to the culture medium and the cells incubated at 37° C. for 1 h. The assay was stopped by adding lysis buffer [20% sodium dodecyl sulfate (SDS) in 50% N,N-dimethylformamide, pH 4.7]. Absorbance was measured spectrophotometrically at 570 nm after an overnight incubation at room temperature.

[2] = test system: cerebellar granule neurons; experiment: MTT assay in cerebellar granule neurons; type: cell-based, rat; settings: 24 h peptide treatment
Protocol: as §1
Culturing and treatment of neurons: Cerebellar granule neurons were cultured from 7-8 day old rats as previously described. The neurons were plated in 24-well with poly-L-lysine coated glass coverslips at a density of ˜1 million cells/well in Basal Eagle's Medium with Earle's salts (BME) supplemented with 10% FCS, 25 mM KCl, 2 mM glutamine and […] gentamicin. […]
(§2) Cell viability quantification: Cell viability was quantified using the Live/Dead assays with a commercially available kit (Invitrogen). This is a two-color fluorescence assay utilizing two cell-permeable compounds, calcein acetoxymethyl (calcein AM) and ethidium homodimer-1 (EthD-1). […] Cell viability was also analyzed using the MTT [3-(4,5-Dimethylthiazol-2-yl)-2,5-diphenyltetrazolium bromide] assay based on the evaluation of mitochondrial function. […] Absorbance was measured spectrophotometrically at 570 nm after an overnight incubation at room temperature.

cortical neurons = experiment: Live/Dead viability assay in cortical neurons; type: cell-based; settings: 24 h, serum-free medium
Protocol: (§3) Primary cultures and cell lines were treated in serum-free medium with T-peptide for 24 hours. Viability was quantified using the Live/Dead assay. * indicates p<0.05 compared with control cells that were treated with serum-free medium without peptide: (6A) Results from the analyses of cerebellar granule neurons, cortical neurons, and kidney fibroblasts cultured from rats, (6B) Results from the HT22 and HEK293 cell lines;
as §2, with “(EthD-1). Live cells have intracellular esterases that convert non-fluorescent calcein AM to the intensely green fluorescent calcein, which is retained within the cytoplasm of cells. Because dead cells have damaged membranes, EthD-1 enters and is fluorescent when bound to nucleic acids. EthD-1 stains the nuclei of damaged or dead cells.” for “(EthD-1).”

kidney fibroblasts = experiment: Live/Dead viability assay in primary kidney fibroblasts; type: cell-based, rat; settings: 24 h, serum-free medium
Protocol: as §3
Cultures of kidney fibroblasts and treatment with peptides: Kidneys were taken for 7-8 day old rats and placed in Dulbecco's Modified Eagle's Medium (DMEM). They were then diced and trypsinized for 8-12 mins. Trypsin was inactivated with trypsin inhibitor and centrifuged at 500 g for 1 min. Pellets were resuspended in DMEM and broken-up with a pasteur pipette 25 times, then centrifuged at 1000 g rpm for 1 min. […]
as §2

Primary glial cells = experiment: T-peptide toxicity in primary glial cells; type: cell-based; settings: data not shown
[3] = Live/Dead viability assay in HT-22 cell line; type: cell-based; settings: 24 h, serum-free medium
Protocol: as §3
(§4) HT-22 and HEK293 cell culture: HT-22 cells were maintained in DMEM supplemented with 10% FCS, 50 U/ml penicillin and 50 μg/ml streptomycin. HEK293 were maintained in DMEM supplemented with 10% FCS, 50 U/ml penicillin and 50 μg/ml streptomycin. Both cell lines were treated with peptide at 70-80% confluency in serum-free media.
as §2

[4] = test system: human embryonic kidney HEK293T cell line; experiment: Live/Dead viability assay in HEK293T cell line; type: cell-based; settings: 24 h, serum-free medium
Protocol: as §3, §4, §2

adult rat brains = experiment: Stereotaxic injection of peptide into adult rat brain; type: in vivo
Excerpt: Other aggregating peptides unrelated to tau are not neurotoxic. […] To examine this issue, we synthesized two peptides, STVIIE-R9 (designated at ST peptide), previously described by Pastor et al. (Pastor et al., 2008) and another de novo peptide, SQIVYA-R9. We were able to follow the kinetics of aggregation of both peptides into amyloid forming structures using the fluorescence of thioflavin-S and we characterized their morphology by TEM. […] Peptide induces neurodegeneration in the intact rat brain. […] To examine this issue, […] of T-peptide and K-peptide was sterotaxically injected into adult rat brains. Each animal received 2 injections—on one side into the striatum, and on the other side into the hippocampus. Rats were analyzed 1 week later. […] No damage is seen in the hippocampus however.

CC[C@@H](C)[C@@H](NC(=O)[C@@H](CCC(N)=O)NC(=O)[C@H](NC(C)=O)C(C)C)C(=O)N[C@@H](C(=O)N[C@H](Cc1ccc(O)cc1)C(=O)N[C@H](CCCCN)C(=O)N[C@@H](CCCNC(=N)N)C(=O)N[C@@H](CCCNC(=N)N)C(=O)N[C@@H](CCCNC(=N)N)C(=O)N[C@@H](CCCNC(=N)N)C(=O)N[C@@H](CCCNC(=N)N)C(=O)N[C@@H](CCCNC(=N)N)C(=O)N[C@@H](CCCNC(=N)N)C(=O)N[C@@H](CCCNC(=N)N)C(=O)N[C@@H](CCCNC(=N)N)C(N)=O)C(C)C [T-peptide, Ac-vqivyk-R9—NH2]
doses at which significant death is observable ([1]; 24 h, serum-free HK medium): ≥ 5 µM | neurotoxicity / effect on neuronal survival ([1]; 24 h peptide treatment, HK medium): induces cell death in a concentration-dependent manner | MTT assay result (mitochondrial function, words) [2]: confirmed using the MTT assay | sensitivity to T-peptide induced toxicity relative to cerebellar granule neurons (cortical neurons): slightly less sensitive | sensitivity to T-peptide toxicity relative to neuronal cell types (kidney fibroblasts): much less sensitive | sensitivity to T-peptide toxicity relative to neurons (Primary glial cells): less sensitive than neurons | sensitivity to T-peptide toxicity [3]: moderate level of sensitivity | doses up to which the cell line is resistant [4]: up to 50 μM | brain damage compared with K-peptide-injected rats (adult rat brains; 200 mg injected into striatum and hippocampus, analyzed 1 week later): display more damage than K-peptide-injected rats | damage in corpus callosum (adult rat brains; 200 mg injected, 1 week): shows damage and scarring | damage in hippocampus (adult rat brains; 200 mg injected, 1 week): does not seem to show much damage | damage in striatum (adult rat brains; 200 mg injected, 1 week): shows obvious damage | lateral ventricle (adult rat brains; 200 mg injected, 1 week): enlarged
